Experimental data reported in patent publication US20230181564A1, “Potent Tetrahydroquinolone Eliminates Apicomplexan Parasites” (The University of Chicago, priority 2020, published 2023).

Key:
[1] = test system: Human Foreskin Fibroblast (HFF); assay: Cytotoxicity assay with WST-1 on HFF; type: cell-based
Method: PBS Sol/Toxicity pH7.4 refers to solubility of the compound in Phosphate Buffered Saline (PBS) at pH7.4. […] Tachy/Brady IC50 was determined in studies in which cultures of parasites in HFF were treated with varying concentrations of the compound and there was 50% inhibition of the replication (number) of parasites. Parasites were RH-YFP expressing tachyzoites (Tachy) and EGS (Brady) strains. Studies of effects of inhibitors on HFF or on T.gondii tachyzoites were performed with triplicate wells in at least two biological replicate experiments. Studies of effects on bradyzoites were performed at least twice in at least two biological replicate experiments. Compounds with much less inhibition of mammalian than T. gondii cytochrome bc in the saffarine enzyme assay (indicated by **) provide potential to further develop compounds, if unanticipated toxicity occurs from JAG21.
Cytotoxicity Assays in parallel with RH Strain T.gondii in vitro studies. Toxicity assays used WST-1 cell proliferation reagent (Roche) as in Fomovska et al. (2012). HFF were grown on a flat, clear-bottomed, black 96-well plate. Confluent HFF were treated with inhibitory compounds at concentrations of 10 μM and 50 μM. Compounds were diluted in IMDM-C, and 20 μL were added to each designated well, with triplicates for each condition. A gradient with 2 fold-decreasing concentrations of DMSO from 10% to 0% in colorless, translucent IMDM-C was used as a control. The plate was incubated for 72 hours at 37° C. 10 μL WST-1 reagent (Roche) were added to each well. Cells were incubated for 30-60 minutes. Absorbance was read using a fluorimeter at 420 nm. A higher degree of color change (and absorbance) indicated mitochondrial activity and cell viability.
Because T. gondii grows inside cells, if a compound were toxic to host HFF then it would make the compound appear to be spuriously effective (Fomovska et al. 2012; Fomovska et al. 2012a), when in actuality only toxicity for the host cell would be measured. Cytotoxicity to HFF was therefore assessed for all compounds at 10 μM. Results of this experiment are in Table 1, toxicity column. A two-way ANOVA and subsequent pairwise comparison found none of the differences in absorbance, compared to the media-DMSO vehicle controls, to be statistically significant (p>0.05). Most of these compounds are not toxic at 10 μM (the limit of solubility) and that cytotoxicity to cells can be attributed to DMSO in the solution, not the compound.

[2] = Metabolic stability in human liver microsomes; type: in vitro ADME
Method: PBS Sol/Toxicity pH7.4 refers to solubility of the compound in Phosphate Buffered Saline (PBS) at pH7.4. […] Parasites were RH-YFP expressing tachyzoites (Tachy) and EGS (Brady) strains. Studies of effects of inhibitors on HFF or on T.gondii tachyzoites were performed with triplicate wells in at least two biological replicate experiments. Studies of effects on bradyzoites were performed at least twice in at least two biological replicate experiments. Compounds with much less inhibition of mammalian than T. gondii cytochrome bc in the saffarine enzyme assay (indicated by **) provide potential to further develop compounds, if unanticipated toxicity occurs from JAG21.
Structure Activity Relationship (SAR) and comparison of effect on T.gondii and HFF enzyme activity. […] The MDCK-MDR1 Permeability Assay was also performed. […] These were measured by Chem Partners.

bovine cytochrome bc1 = target: T1, bovine cytochrome bc1 (Bos taurus, UniProt P00157); assay: Bovine cytochrome bc1 activity assay; type: biochemical; conditions: read-out: Inhibition of bovine Cytbc1 activity
T1 construct: Whole fresh bovine heart was collected after slaughter; from tissue; host or cells: bovine heart mitochondria; DDM-solubilised, DEAE-Sepharose, Sephacryl S-300, PEG fractionation
Method: Bovine cytochrome bc1 activity assays. Bovine cytochrome bc, inhibition assay was carried out in 50 mM KPi pH 7.5, 2 mM EDTA, 10 mM KCN, 30 μM equine heart cytochrome c (Sigma Aldrich), and 2.5 nM bovine cytochrome bc, at room temperature. 20 mM inhibitors dissolved in DMSO were added to the assay at a desired concentration without prior incubation. […] The reaction was initiated by the addition of 50 μM decylubiquinol (Abcam). The reduced cytochrome c was monitored by the different absorption between 550 and 542 nm using extinction coefficient of 18.1 mM^−1 cm^−1 in a SPECTRAmax Plus 384 UV-visible Spectrometer. The initial kinetic rate is determined as a zero-order reaction and used as the specific activity of cytochrome bc1.

[3] = test system: T. gondii (Prugneaud strain expressing luciferase) tachyzoites; assay: Acute infection with Prugneaud luciferase tachyzoites in Balb/C mice (IVIS, brain cysts); type: in vivo, Toxoplasma gondii
Method: IVIS. Balb/C mice were infected intraperitoneally (IP) with 20×10^3 T. gondii (Prugneaud strain expressing luciferase) tachyzoites. Treatment began 2 hours later with JAG21 (5 mg/kg) which was dissolved in DMSO, administered IP in a total volume of 0.05 ml. Mice were imaged every second day starting on day 4 post infection using an IVIS Spectrum (Caliper Life Sciences) for […], with medium binning, 20 minutes post injection with 150 mg/kg of D-luciferin potassium salt solution.
Brain cysts. Brain cysts were searched for in paraffin imbedded tissue of the surviving Prugneaud strain infected treated Balb/C mice in the IVIS study, 30 days after infection which was 16 days after treatment had been discontinued. All treated mice had survived. There were no surviving untreated mice in those experiments.

## Cc1[nH]c2c(c(=O)c1-c1ccc(Oc3ccc(OC(F)(F)F)cc3)cc1)CCCC2 [JAG021, 2-methyl-3-(4-(4-(trifluoromethoxy)phenoxy)phenyl)-5,6,7,8-tetrahydroquinolin-4-one]
[1]
  Toxicity to human cells in the in vitro model (HFF): not toxic
[2]; after 45 minutes
  Remaining in human liver microsomes: > 99%
[2]; predicted half-life in human liver microsomes, unit in cell, read-out: T1/2 (H)
  half-life: > 168 h
Bovine cytochrome bc1; 0.1 μM
  inhibition at 0.1 µM: 36%
Bovine cytochrome bc1; 1 μM
  inhibition at 1 µM: 63%
[3]; 5 mg/kg/day IP
  Luciferase tachyzoites in luminescence studies: eliminates illness and T. gondii Type II Prugneaud luciferase tachyzoites completely
[3]; 5 mg/kg/day for 14 days from start of infection, brains evaluated at 30 days
  Cysts in brains: no cysts being found
[3]; Balb/C mice, JAG21 5 mg/kg IP for 14 days
  Survival of infected mice: 100%
